From PubChem BioAssay (NCI)
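Five compound concentrations were applied to cells in 96-well plates for 48 hours; endpoints were derived by simple linear interpolation of the resulting dose-response curve. The concentration for full growth arrest is given as TGI.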

test system: SW-620 colon; assay: inhibition of tumour cell growth, NCI panel, 48 h

`N#[O+].O=S(=O)([O-])[O-].[NH2-].[NH2-].[NH2-].[NH2-].[NH2-].[Ru+5]` was tested, and the TGI was over 100 µM.

test system: HCT-116 colon; assay: inhibition of tumour cell growth, NCI panel, 48 h

`O=C1c2ccccc2S[C@@H](O)[C@@H]2CCCN12` and `O=C1CCC(c2ccccc2)C(O)(C(=O)O)C1` (stereo not drawn) cannot be ordered by TGI: over 100 µM for the first, over 100 µM for the second.

`CC1=C2C3=C(C)C(=O)C(C)(C)CC[C@@]3(C)[C@]2(C)CCC(C)(C)C1=O` and `Cc1nnc([C@@]2(C)CC[C@H]3[C@@H](CC=C4C[C@@H](O)CC[C@@]43C)[C@@H]2CC#N)o1` cannot be ordered by TGI: over 100 µM for the first, over 100 µM for the second.

`Cc1cc(=O)[nH]c(NNC(C#N)c2ccc(O)cc2)n1` (stereo not drawn) and `CC1=CC(=O)NP(=O)(Oc2ccc(C)cc2)N1` (stereo not drawn) cannot be ordered by TGI: over 100 µM for the first, over 100 µM for the second.

`O=C1NNC(=O)C2C3c4ccccc4C(c4ccccc43)C12` (stereo not drawn) and `S=C1Cc2c([nH]c3ccccc23)-c2ccccc2N1` cannot be ordered by TGI: over 100 µM for the first, over 100 µM for the second.

`O=C(CSc1nnc(Cc2ccccc2)o1)Nc1cccc([N+](=O)[O-])c1` and `O=C(CC(=O)n1nc(-c2ccccc2)c(N=Nc2ccc(Cl)cc2)c1-c1ccccc1)Nc1cccc(Cl)c1` cannot be ordered by TGI: over 100 µM for the first, over 100 µM for the second.

First: COc1cccc(C2c3cc4c(cc3OC(N3CCCC3)C2C)OCO4)c1 (stereo not drawn)
Second: CSc1nc(Cl)c2c(n1)Sc1nc3cc4c(cc3n1C2O)OCO4 (stereo not drawn)
The TGI of the first is lower: 18.3 µM for the first, over 47.4 µM for the second.

Compared with `CN(C)/N=C(\CCN1CCCC1)CC(c1ccccc1)c1c(O)c2ccccc2oc1=O` (stereo not drawn), `CN1CCC(OC(=O)Oc2ccccc2)(c2ccccc2)CC1` is lower in TGI: over 100 µM for the first, 30.5 µM for the second.

Compared with `O=P(c1ccccc1)(c1ccccc1)C(NCc1ccccc1)c1ccc(F)cc1` (stereo not drawn), `CC(=O)NC(CCCN)C(=O)NCc1ccccc1` (stereo not drawn) is higher in TGI: 25.7 µM for the first, over 100 µM for the second.

`CCOC(=O)C(Cl)(NC(=O)c1ccc(F)cc1)C(F)(F)F` (stereo not drawn) and `N#CCCN(CCC#N)c1ccc(C(=O)NN)cc1` cannot be ordered by TGI: over 100 µM for the first, over 100 µM for the second.

First: CC1CN=C(Nc2ccc(S(N)(=O)=O)cc2)S1 (stereo not drawn)
Second: CCN(CC)Cc1cc(Nc2ccnc3ccc4c(nnn4C)c23)ccc1O
The TGI of the first is higher: over 100 µM for the first, 18.2 µM for the second.

`CC(=O)NCc1nc(C#N)c(N)o1` and `CC(=O)OC1CC2OC(Cc3ccccc32)O1` (stereo not drawn) cannot be ordered by TGI: over 100 µM for the first, over 100 µM for the second.

Going from `COc1cc2c(c(OC)c1OC)-c1ccc(SC)c(=O)cc1C(CC(=O)Oc1ccc([N+](=O)[O-])cc1)C2` (stereo not drawn) to `COc1ccc(-c2c(C(C)=O)c(-c3ccccc3)n(C3OC(COC(C)=O)C(OC(C)=O)C(OC(C)=O)C3OC(C)=O)c(=S)c2C#N)cc1` (stereo not drawn), the TGI rises from 1.82 µM to over 100 µM.

`Cc1[nH]c(=O)[nH]c(=S)c1C(=O)NC(C)(CO)CO` and `CCOC(=O)CC(NC(=O)c1nc[nH]c1[N+](=O)[O-])C(=O)OCC` (stereo not drawn) cannot be ordered by TGI: over 100 µM for the first, over 100 µM for the second.

Going from `O=C1SCC(O)=C1/C=N/Nc1nc2ccccc2o1` to `COC(=O)c1ccc2c(c1)CC1(C2)Cc2cc3c(cc2C1=O)CCC3` (stereo not drawn), the TGI rises from 50 µM to over 100 µM.

Compared with `CCCCCCCCCCCCCCCCCc1cccc(OCOCCOC)c1CO`, `CCOC(=O)Cn1sc2ncc([N+](=O)[O-])cc2c1=O` is lower in TGI: over 100 µM for the first, 31.1 µM for the second.

In the case of `N#[O+].O=S(=O)([O-])[O-].[NH2-].[NH2-].[NH2-].[NH2-].[NH2-].[Ru+5]`, the TGI is reported as over 100 µM.

test system: RXF 393 renal; assay: inhibition of tumour cell growth, NCI panel, 48 h

`O=C1c2ccccc2S[C@@H](O)[C@@H]2CCCN12` and `CC(=O)OC1CC2OC(Cc3ccccc32)O1` (stereo not drawn) cannot be ordered by TGI: over 100 µM for the first, over 100 µM for the second.

`CC1=C2C3=C(C)C(=O)C(C)(C)CC[C@@]3(C)[C@]2(C)CCC(C)(C)C1=O` and `Cc1nnc([C@@]2(C)CC[C@H]3[C@@H](CC=C4C[C@@H](O)CC[C@@]43C)[C@@H]2CC#N)o1` cannot be ordered by TGI: over 100 µM for the first, over 100 µM for the second.

Compared with `Cc1cc(=O)[nH]c(NNC(C#N)c2ccc(O)cc2)n1` (stereo not drawn), `O=C1SCC(O)=C1/C=N/Nc1nc2ccccc2o1` is lower in TGI: over 100 µM for the first, 70.7 µM for the second.

Going from `O=C1NNC(=O)C2C3c4ccccc4C(c4ccccc43)C12` (stereo not drawn) to `S=C1Cc2c([nH]c3ccccc23)-c2ccccc2N1`, the TGI falls from over 100 µM to 46 µM.

`O=C(CSc1nnc(Cc2ccccc2)o1)Nc1cccc([N+](=O)[O-])c1` and `O=C(CC(=O)n1nc(-c2ccccc2)c(N=Nc2ccc(Cl)cc2)c1-c1ccccc1)Nc1cccc(Cl)c1` cannot be ordered by TGI: over 100 µM for the first, over 100 µM for the second.

`CN(C)/N=C(\CCN1CCCC1)CC(c1ccccc1)c1c(O)c2ccccc2oc1=O` (stereo not drawn) and `CN1CCC(OC(=O)Oc2ccccc2)(c2ccccc2)CC1` cannot be ordered by TGI: over 100 µM for the first, over 100 µM for the second.

Compared with `O=P(c1ccccc1)(c1ccccc1)C(NCc1ccccc1)c1ccc(F)cc1` (stereo not drawn), `CC(=O)NC(CCCN)C(=O)NCc1ccccc1` (stereo not drawn) is higher in TGI: 28.3 µM for the first, over 100 µM for the second.

`CCOC(=O)C(Cl)(NC(=O)c1ccc(F)cc1)C(F)(F)F` (stereo not drawn) and `N#CCCN(CCC#N)c1ccc(C(=O)NN)cc1` cannot be ordered by TGI: over 100 µM for the first, over 100 µM for the second.

First: CC(=O)NCc1nc(C#N)c(N)o1
Second: CCOC(=O)Cn1sc2ncc([N+](=O)[O-])cc2c1=O
The TGI of the first is higher: over 100 µM for the first, 35.4 µM for the second.

First: COc1cc2c(c(OC)c1OC)-c1ccc(SC)c(=O)cc1C(CC(=O)Oc1ccc([N+](=O)[O-])cc1)C2 (stereo not drawn)
Second: COc1ccc(-c2c(C(C)=O)c(-c3ccccc3)n(C3OC(COC(C)=O)C(OC(C)=O)C(OC(C)=O)C3OC(C)=O)c(=S)c2C#N)cc1 (stereo not drawn)
The TGI of the first is lower: 0.65 µM for the first, over 100 µM for the second.

Going from `CSc1nc(Cl)c2c(n1)Sc1nc3cc4c(cc3n1C2O)OCO4` (stereo not drawn) to `CCN(CC)Cc1cc(Nc2ccnc3ccc4c(nnn4C)c23)ccc1O`, the TGI falls from over 51.9 µM to 30.6 µM.

`Cc1[nH]c(=O)[nH]c(=S)c1C(=O)NC(C)(CO)CO` and `COC(=O)c1ccc2c(c1)CC1(C2)Cc2cc3c(cc2C1=O)CCC3` (stereo not drawn) cannot be ordered by TGI: over 100 µM for the first, over 100 µM for the second.

`CCCCCCCCCCCCCCCCCc1cccc(OCOCCOC)c1CO` and `N#[O+].O=S(=O)([O-])[O-].[NH2-].[NH2-].[NH2-].[NH2-].[NH2-].[Ru+5]` cannot be ordered by TGI: over 100 µM for the first, over 100 µM for the second.
